One assay relates to A. viscosus biofilm. Put plainly: Single species A. viscosus biofilm assay (Biofilm Eradication Concentration, BEC50). As to conditions: for BEC50 of Active + 50 ppm TBHQ: active combined with 50 ppm TBHQ; for BEC50 of Active Alone: lowest concentration with greater than 50% reduction in biofilm biomass relative to control, TBHQ tested at 50 ppm. It counts as cell-based. Here is the method:
TBHQ and a series of actives were tested in single species of A. viscosus biofilm assay.

The next assay deals with A. viscosus. The experiment in a line: Minimum inhibitory concentration (MIC) of TBHQ. It counts as cell-based.
For a further assay, the system named is TNF-α. The experiment in a line: Anti-inflammatory efficacy in cells triggered by HKPG: TNF-α level. It counts as cell-based, human. Here is the method:
(§1) The anti-inflammatory efficacy of TBHQ in neat solution against several inflammation cytokines was evaluated. Human fibroblast (HEPM) cells or human macrophage (U937) cells were used in these tests. Inflammation was triggered by Heat Killed P. gingivalis (HKPG). TBHQ at various doses was co-incubated with cells treated with HKPG, and the levels of inflammatory markers were observed.

The next assay deals with IL-1b. The experiment in a line: Anti-inflammatory efficacy in cells triggered by HKPG: IL-1b level. In kind it is cell-based, human. Here is the method: as §1
The next assay has as its system P. gingivalis. Put plainly: Minimum inhibitory concentration (MIC) of TBHQ. It counts as cell-based.
The next assay concerns F. nucleatum. The experiment in a line: Minimum inhibitory concentration (MIC) of TBHQ. It counts as cell-based.
For a further assay, the system named is common pathogens. The experiment in a line: Antimicrobial activity relative to known antimicrobial agents. In kind it is cell-based.
The test system of a further assay is IL-6. The experiment in a line: Anti-inflammatory efficacy in cells triggered by HKPG: IL-6 level. In kind it is cell-based, human. Here is the method: as §1
The next assay deals with PGE2. Put plainly: Anti-inflammatory efficacy in cells triggered by Heat Killed P. gingivalis (HKPG): PGE2 level. In kind it is cell-based, human. Here is the method:
as §1

Where [1] appears, read: TBHQ 10 ppm, HKPG-treated cells.
The mark [2] stands for this setting: TBHQ 100 ppm, HKPG-treated cells.

`[Cl][Sn][Cl]` [Stannous chloride]: in the assay with A. viscosus biofilm, the “BEC50 of Active + 50 ppm TBHQ” value is 39 ppm and the “BEC50 of Active Alone” value turned out to be 156.3 ppm.

Regarding `CC(C)(C)c1cc(O)ccc1O` [TBHQ, 2-t-butyl-p-hydroquinone], the MIC against A. viscosus, in the assay on P. gingivalis and in the assay on F. nucleatum was 62.5 ppm in each case. Besides, the TNF-α amounted to 198 pg/mL with TNF-α (TBHQ 1 ppm, HKPG-treated cells (HKPG alone 194, untreated 15)); 68 pg/mL with TNF-α (setting [1]); 7 pg/mL in the assay with TNF-α (setting [2]). The IL-1b with IL-1b (TBHQ 1 ppm, HKPG-treated cells (HKPG alone 85, untreated 63)) came to 88 pg/mL; in the assay with IL-1b (setting [1]) it was 55 pg/mL; in the assay with IL-1b (setting [2]), 29 pg/mL. Also, the “antimicrobial activity, times lower than known antimicrobial agent” value in the assay with common pathogens (relative to cetylpyridinium chloride (CPC)) was found to be 60 times; in the assay on common pathogens (relative to triclosan), 20 times. Further, the “reduction in biofilm biomass” value in the assay on A. viscosus biofilm (TBHQ alone at 12.5 ppm) and with A. viscosus biofilm (TBHQ alone at 50 ppm) was not above 50% throughout. For the same compound, the BEC50 result with A. viscosus biofilm (Table 3, TBHQ at 12.5 ppm, alone or with zinc oxide slurry) was “Not measurable”. The “BEC50 of Active Alone” value in the assay with A. viscosus biofilm was “Not measurable”. For the same compound, the IL-6 with IL-6 (TBHQ 1 ppm, HKPG-treated cells (HKPG alone 1753, untreated 42)) came to 405 pg/mL; in the assay on IL-6 (setting [1]), 100 pg/mL; in the assay with IL-6 (setting [2]), 23 pg/mL. Besides, the PGE2 level came out at 1323 pg/mL in the assay on PGE2 (TBHQ 0.9 ppm, HKPG-treated cells); 1378 pg/mL in the assay with PGE2 (TBHQ 1.8 ppm, HKPG-treated cells); 1327 pg/mL in the assay on PGE2 (TBHQ 3.9 ppm, HKPG-treated cells); 1563 pg/mL in the assay on PGE2 (TBHQ 7.8 ppm, HKPG-treated cells); 1249 pg/mL in the assay with PGE2 (TBHQ 15.6 ppm, HKPG-treated cells); 1124 pg/mL in the assay with PGE2 (TBHQ 31.2 ppm, HKPG-treated cells). Besides, the PGE2 level with PGE2 (TBHQ 62.5 ppm, co-incubated with HKPG-treated cells (HKPG alone 1743, untreated 1579)) came to 764 pg/mL.

`COc1cc(CCC(=O)CC(=O)CCc2ccc(O)c(OC)c2)ccc1O` [Tetra-hydrocurcumin]: in the assay with A. viscosus biofilm, the “BEC50 of Active + 50 ppm TBHQ” value was 1.22 ppm and the “BEC50 of Active Alone” value was more than 2500 ppm.

As for `Oc1cc(Cl)ccc1Oc1ccc(Cl)cc1Cl` [Triclosan, reference compound], in the assay with A. viscosus biofilm, the “BEC50 of Active + 50 ppm TBHQ” value is recorded as less than 0.03 ppm and the “BEC50 of Active Alone” value stood at 0.49 ppm.

In the case of `O=C([O-])CC(O)(CC(=O)[O-])C(=O)[O-].O=C([O-])CC(O)(CC(=O)[O-])C(=O)[O-].[Zn+2].[Zn+2].[Zn+2]` [Zinc Citrate], in the assay on A. viscosus biofilm, the “BEC50 of Active + 50 ppm TBHQ” value was found to be 19.5 ppm and the “BEC50 of Active Alone” value turned out to be 78.1 ppm.

For the origin of these results see patent US9119879B2, “Oral care compositions comprising a quinone and a further antimicrobial agent” (Colgate-Palmolive Company, priority 2010, dated 2015).
